Biological target: T1, nitrogen monoxide synthase (NO synthase) (Rattus norvegicus, UniProt P29476)
T1 construct: the supernatant was then decanted off and frozen in portions; from tissue; host or cells: rat cerebellum (homogenate, 20,000 g supernatant)
Test: HTS-NOS assay (nitrogen monoxide synthase assay)
Assay type: biochemical
Conditions: compound at 10 μM; enzyme preparation from rat cerebella; [3H]-arginine substrate
From the text: This assay makes it possible to determine the percentage inhibition of NO synthase by a compound of the general formula I used according to the invention by measuring NOS activity on exposure to the compound. NO synthase is here mixed under suitable conditions together with radioactively labelled arginine and the particular compound of the general formula I. After termination of the NO formation reaction at a predetermined time, the quantity of unconverted arginine is directly or indirectly determined. […] This assay may be carried out at follows: • (a) Incubation of the NO synthase with labelled arginine as the substrate in a reaction vessel, • (b) Separation of the labelled arginine from the labelled citrulline optionally arising as a product of the enzymatic reaction at a time at which the concentration of citrulline is rising, • (c) Measurement of the quantity of arginine separated in each case.
Separation is performed by means of a filter plate membrane.
Radioactive arginine is used as the substrate in this HTS-NOS assay. Depending on the type of microtitre plate (MTP), the assay volume may be selected in the range between 25 μl and 250 μl. Depending on the enzyme source used, cofactors and coenzymes are added. The batches are incubated in this microtitre plate (assay MTP) according to step (a) at room temperature and, depending on the enzyme activity used (units), lasts between 5 and 60 minutes. On completion of incubation (step (a)), the plate is placed in a cell harvester, which is equipped with an MTP which has a cation exchange membrane as a filter bottom (filter MTP). All the batches from the assay MTP are transferred into this filter MTP and suction filtered through a cation exchange filter plate, a paper filter loaded with phosphate groups. The filter MTP is then washed with buffer or water. This procedure binds the remaining substrate arginine onto the cation exchanger, while the enzymatically formed radioactive citrulline is quantitatively eluted. Once the filter MTP has been dried and scintillation liquid added, the bound arginine can be counted in the scintillation counter. Low radioactivity indicates an uninhibited NOS reaction. An inhibited enzyme reaction means that the radioactive arginine has not been converted. This means that there is a high level of radioactivity on the filter.
• Arginine, L-[2,3,4-^3H]-monohydrochloride; item no. […] The pH value of the buffer was adjusted to 7.4 at 25° C. • Washing medium: H2O Enzyme Preparation
Rat cerebella were used as the starting tissue. The animals were stunned and killed, the brain tissue, the cerebellum, was dissected out, 1 ml of enzyme preparation buffer (4° C.) was added per cerebellum, and the tissue was disrupted for 1 min at 6000 rpm in a Polytron homogeniser. The mixture was then centrifuged at 4° C. for 15 min at 20,000 g, and the supernatant was then decanted off and frozen in portions at −80° C. (discarding the precipitate).
96-Well MTPs with a well capacity of ≦250 μl were used Pipetting sequence: see table 1:
Once the pipetting operation was complete, a lid was laid on top of this MTP (assay MTP). Incubation at 25° C. (room temperature (RT)) for 5-60 min, depending on the quantity and activity of the enzyme used.
The contents of the assay MTP were then transferred with the assistance of a 96 well cell harvester into a 96 well cation exchange MTP (filter MTP) and suction filtered. A single washing with […] of H2O (from a trough) was then performed.
The plate was then dried for 1 h at 60° C. in a drying cabinet. The bottom of the filter MTP was then carefully sealed from beneath with a “back seal”. 35 μl of scintillating material were then pipetted into each well. The top of the plate was also sealed with a “top seal”. After 1 hour's waiting time, the plate was assessed on the β-counter.

CCOC(=O)c1c[nH]nc1NC1CC(C)(c2ccc(I)cc2)OC1=O (centres unmarked) [Example 46, 3-[5-(4-Iodo-phenyl)-5-methyl-2-oxo-tetrahydro-furan-3-ylamino]-1H-pyrazole-4-carboxylic acid ethyl ester]
inhibition at 10 µM: 44%

CC1(c2ccc(Br)cc2)CC(Nc2ccc(Br)cn2)C(=O)O1 (centres unmarked) [Example 47, 5-(4-Bromo-phenyl)-3-(5-bromo-pyridin-2-ylamino)-5-methyl-dihydro-furan-2-one]
inhibition at 10 µM: 54%

Cc1cnc(NC2CC(C)(c3cccc4ccccc34)OC2=O)c(Br)c1 (stereo not drawn) [Example 48, 3-(3-Bromo-5-methyl-pyridin-2-ylamino)-5-methyl-5-naphthalen-l-yl-dihydro-furan-2-one]
NOS (% inhibition): 45%

CCCc1cccc(NC2CC(C)(c3cccc4ccccc34)OC2=O)n1 (stereo not drawn) [Example 49, 5-Methyl-5-naphthalen-l-yl-3-(6-propyl-pyridin-2-ylamino)-dihydro-furan-2-one]
NOS (% inhibition): 53%

CCCc1cccc(NC2CC(C)(c3cccc(Cl)c3)OC2=O)n1 (centres unmarked) [Example 50, 5-(3-Chloro-phenyl)-5-methyl-3-(6-propyl-pyridin-2-ylamino)-dihydro-furan-2-one]
inhibition at 10 µM: 61%

Cc1ccnc(NC2CC(C)(c3cccc(Cl)c3)OC2=O)c1[N+](=O)[O-] (centres unmarked) [Example 51, 5-(3-Chloro-phenyl)-5-methyl-3-(4-methyl-3-nitro-pyridin-2-ylamino)-dihydro-furan-2-one]
inhibition at 10 µM: 50%

Cc1ccnc(NC2CC(C)(c3ccc(Br)cc3)OC2=O)c1[N+](=O)[O-] (centres unmarked) [Example 52, 5-(4-Bromo-phenyl)-5-methyl-3-(4-methyl-3-nitro-pyridin-2-ylamino)-dihydro-furan-2-one]
inhibition at 10 µM: 43%

Cc1nc(NC2CC(C)(c3ccc(I)cc3)OC2=O)ccc1Br (centres unmarked) [Example 54, 3-(5-Bromo-6-methyl-pyridin-2-ylamino)-5-(4-iodo-phenyl)-5-methyl-dihydro-furan-2-one]
inhibition at 10 µM: 70%

CC1(c2ccc(I)cc2)CC(Nc2ncccc2OCc2ccccc2)C(=O)O1 (centres unmarked) [Example 55, 3-(3-Benzyloxy-pyridin-2-ylamino)-5-(4-iodo-phenyl)-5-methyl-dihydro-furan-2-one]
inhibition at 10 µM: 44%

CC1(c2ccc(Br)cc2)CC(Nc2ncccc2OCc2ccccc2)C(=O)O1 (centres unmarked) [Example 56, 3-(3-Benzyloxy-pyridin-2-ylamino)-5-(4-bromo-phenyl)-5-methyl-dihydro-furan-2-one]
inhibition at 10 µM: 59%

Cc1cc(C)nc(NC2CC(C)(c3ccc(I)cc3)OC2=O)c1 (centres unmarked) [Example 57, 3-(4,6-Dimethyl-pyridin-2-ylamino)-5-(4-iodo-phenyl)-5-methyl-dihydro-furan-2-one]
inhibition at 10 µM: 72%

Cc1cc(C)nc(NC2CC(C)(c3cccc(Cl)c3)OC2=O)c1 (centres unmarked) [Example 58, 5-(3-Chloro-phenyl)-3-(4,6-dimethyl-pyridin-2-ylamino)-5-methyl-dihydro-furan-2-one]
inhibition at 10 µM: 73%

Cc1cccnc1NC1CC(C)(c2ccc(Br)cc2)OC1=O (centres unmarked) [Example 59, 5-(4-Bromo-phenyl)-5-methyl-3-(3-methyl-pyridin-2-ylamino)-dihydro-furan-2-one]
inhibition at 10 µM: 45%

Cc1ccnc(NC2CC(C)(c3ccc(Br)cc3)OC2=O)c1 (centres unmarked) [Example 60, 5-(4-Bromo-phenyl)-5-methyl-3-(4-methyl-pyridin-2-ylamino)-dihydro-furan-2-one]
inhibition at 10 µM: 59%

CCCc1nc(NC2CC(C)(c3cc(OC)cc(OC)c3)OC2=O)ncc1C(=O)OCC (centres unmarked) [Example 61, 2-[5-(3,5-Dimethoxy-phenyl)-5-methyl-2-oxo-tetrahydro-furan-3-ylamino]-4-propyl-pyrimidine-5-carboxylic acid ethyl ester]
inhibition at 10 µM: 40%

COc1cc(OC)cc(C2(C)CC(Nc3n[nH]cc3Br)C(=O)O2)c1 (centres unmarked) [Example 62, 3-(4-Bromo-1H-pyrazol-3-ylamino)-5-(3,5-dimethoxy-phenyl)-5-methyl-dihydro-furan-2-one]
inhibition at 10 µM: 40%

COc1ccccc1C1(C)CC(Nc2n[nH]cc2Br)C(=O)O1 (centres unmarked) [Example 63, 3-(4-Bromo-1H-pyrazol-3-ylamino)-5-(2-methoxy-phenyl)-5-methyl-dihydro-furan-2-one]
inhibition at 10 µM: 51%

COc1ccc(OC)c(C2(C)CC(Nc3n[nH]cc3C#N)C(=O)O2)c1 (centres unmarked) [Example 64, 3-[5-(2,5-Dimethoxy-phenyl)-5-methyl-2-oxo-tetrahydro-furan-3-ylamino]-1H-pyrazole-4-carbonitrile]
inhibition at 10 µM: 42%

COc1ccc(OC)c(C2(C)CC(Nc3n[nH]c(SC)c3C#N)C(=O)O2)c1 (centres unmarked) [Example 65, 3-[5-(2,5-Dimethoxy-phenyl)-5-methyl-2-oxo-tetrahydro-furan-3-ylamino]-5-methylsulfanyl-1H-pyrazole-4-carbonitrile]
inhibition at 10 µM: 42%

COc1ccc(OC)c(C2(C)CC(Nc3ccccn3)C(=O)O2)c1 (centres unmarked) [Example 66, 5-(2,5-Dimethoxy-phenyl)-5-methyl-3-(pyridin-2-ylamino)-dihydro-furan-2-one]
inhibition at 10 µM: 52%

COc1ccccc1C1(C)CC(Nc2ccccn2)C(=O)O1 (centres unmarked) [Example 67, 5-(2-Methoxy-phenyl)-5-methyl-3-(pyridin-2-ylamino)-dihydro-furan-2-one]
inhibition at 10 µM: 45%

COc1cc(OC)cc(C2(C)CC(Nc3ncc(C(F)(F)F)cc3Cl)C(=O)O2)c1 (centres unmarked) [Example 68, 3-(3-Chloro-5-trifluoromethyl-pyridin-2-ylamino)-5-(3,5-dimethoxy-phenyl)-5-methyl-dihydro-furan-2-one]
inhibition at 10 µM: 60%

COc1ccc(OC)c(C2(C)CC(Nc3ncc(C(F)(F)F)cc3Cl)C(=O)O2)c1 (centres unmarked) [Example 69, 3-(3-Chloro-5-trifluoromethyl-pyridin-2-ylamino)-5-(2,5-dimethoxy-phenyl)-5-methyl-dihydro-furan-2-one]
inhibition at 10 µM: 58%

COc1ccccc1C1(C)CC(Nc2ncc(Cl)cc2Cl)C(=O)O1 (centres unmarked) [Example 70, 3-(3,5-Dichloro-pyridin-2-ylamino)-5-(2-methoxy-phenyl)-5-methyl-dihydro-furan-2-one]
inhibition at 10 µM: 51%

COc1ccc(C2(C)CC(Nc3ncc(C(F)(F)F)cc3Cl)C(=O)O2)c(OC)c1 (centres unmarked) [Example 71, 3-(3-Chloro-5-trifluoromethyl-pyridin-2-ylamino)-5-(2,4-dimethoxy-phenyl)-5-methyl-dihydro-furan-2-one]
inhibition at 10 µM: 54%

COc1cccc(C2(C)CC(Nc3cc(C)cc(C)n3)C(=O)O2)c1 (centres unmarked) [Example 72, 3-(4,6-Dimethyl-pyridin-2-ylamino)-5-(3-methoxy-phenyl)-5-methyl-dihydro-furan-2-one]
inhibition at 10 µM: 40%

COc1ccc(C2(C)CC(Nc3cc(C)cc(C)n3)C(=O)O2)cc1 (centres unmarked) [Example 73, 3-(4,6-Dimethyl-pyridin-2-ylamino)-5-(4-methoxy-phenyl)-5-methyl-dihydro-furan-2-one]
inhibition at 10 µM: 56%

COc1ccc(C2(C)CC(Nc3cc(C)cc(C)n3)C(=O)O2)cc1OC (centres unmarked) [Example 74, 5-(3,4-Dimethoxy-phenyl)-3-(4,6-dimethyl-pyridin-2-ylamino)-5-methyl-dihydro-furan-2-one]
inhibition at 10 µM: 51%

COc1ccc(C2(C)CC(Nc3cc(C)ccn3)C(=O)O2)cc1 (centres unmarked) [Example 75, 5-(4-Methoxy-phenyl)-5-methyl-3-(4-methyl-pyridin-2-ylamino)-dihydro-furan-2-one]
inhibition at 10 µM: 48%
